How the values were obtained:
[1] = test system: Chinese hamster ovary cells; test: standard mitotic inhibition test employing Chinese hamster ovary cells; format: cell-based; details: dose 20-2 mcg/ml for accumulation in mitosis; CHO cells
From the text: As previously stated, the compounds of this invention are antimitotics, and can adversely affect the growth of malignant cells. This activity is manifested in a standard mitotic inhibition test employing Chinese hamster ovary cells.
In the Table, column 1 gives the name of the compound, column 2 gives the dose in mcg/ml for accumulation in mitosis and column 3, the percent mitotic accumulation as a range.

[2] = test system: P388; test: transplanted tumor in mice: P388; format: in vivo; details: every fourth day (three doses)
Experimental: (§1) The bases of this invention and their salts preparable by the processes disclosed herein are active also in vivo against some but not all transplanted tumors in mice.
(§2) The following table--Table 2--gives the results of this experiment in which mice bearing the transplanted tumor were treated with a compound of this invention. In the table, column 1 gives the name of the compound; column 2, the name of the tumor; column 3, the dosage given; and column 4, the percent inhibition of tumor growth (I) or prolongation of life (PL). The following dosage regimen was employed: every fourth day (three doses) starting on the first day after inoculation.

[3] = test system: P388/V; test: transplanted tumor in mice: P388/V; format: in vivo; details: every fourth day (three doses)
Experimental: as §1, §2

Row | Compound | percent mitotic accumulation as a range [1] | Percent Prolongation of life (PL) ([2]; P388, 1.0 mg/kg) [%] | Percent Prolongation of life (PL) ([2]; P388, 1.2 mg/kg) [%] | Percent Prolongation of life (PL) ([2]; P388, 1.4 mg/kg) [%] | Percent Prolongation of life (PL) ([3]; 1.5 mg/kg) [%] | Percent Prolongation of life (PL) ([3]; 2.0 mg/kg, * = below 30, not statistically significant) [%]
1 | CC[C@]1(O)C[C@H]2CN(CCc3c([nH]c4ccccc34)[C@@](C(=O)OC)(c3cc4c(cc3OC)N(C)[C@H]3[C@]5(OC(=O)N(CCS)C5=O)[C@H](OC(C)=O)[C@]5(CC)C=CCN6CC[C@]43[C@@H]65)C2)C1 [Example 2, Vinblastine 3"-(β-thioethyl)-3-spiro-5"-oxazolidine-2",4"-dione] | 10-15% |  |  |  |  | 
2 | CC[C@]1(O)C[C@H]2CN(CCc3c([nH]c4ccccc34)[C@@](C(=O)OC)(c3cc4c(cc3OC)N(C)[C@H]3[C@]5(OC(=O)N(CCS)C5=O)[C@H](O)[C@]5(CC)C=CCN6CC[C@]43[C@@H]65)C2)C1 [4-desacetyl vinblastine 3"-(β-thioethyl)-3-spiro-5"-oxazolidine-2",4"-dione] |  | 52 | 65 | 77 |  | 
3 | CC[C@]1(O)C[C@H]2CN(CCc3c([nH]c4ccccc34)[C@@](C(=O)OC)(c3cc4c(cc3OC)N(C)[C@H]3[C@]5(OC(=O)N(CCSSCCNC(=O)OC)C5=O)[C@H](OC(C)=O)[C@]5(CC)C=CCN6CC[C@]43[C@@H]65)C2)C1 [Example 1, Vinblastine 3"-(β-[β-(methoxycarbonylamino)ethyldithio]ethyl)-3-spiro-5"-oxazolidine-2",4"-dione] | 7-10% |  |  |  | 30 | 25
